Several values for one entry are separate records, joined by “and”; a condition that tells them apart may be missing. Equal values may be shown once.
Tests used:
[1] = tested on: high cardiovascular risk patients with hypercholesterolemia; experiment: ODYSSEY COMBO II: lipid efficacy of alirocumab vs ezetimibe, add-on to maximally tolerated statin; assay type: in vivo, human; settings: for Calculated LDL-C percent change from baseline, LS mean (SE): ITT population, MMRM, alirocumab 75 Q2W/Up150 Q2W, ezetimibe 10
Source text: Each of the COMBO studies was randomized, double-blinded, and placebo-controlled.
The primary efficacy endpoint for each study was the difference between treatment arms in the percent change in LDL-C from baseline to Week 24.
Apo, apolipoprotein; HDL-C, high-density lipoprotein cholesterol; ITT, intent-to-treat; LDL-C, low-density lipoprotein cholesterol; Lp(a), lipoprotein (a); TG, triglycerides.
COMBO II was a Phase 3, randomized, double-blind, active-controlled, parallel-group, multinational 104-week study. The study enrolled high-risk patients with uncontrolled hypercholesterolemia on stable, maximally tolerated daily statin therapy. Unlike COMBO I, with a placebo arm, COMBO II incorporated an active-treatment arm (ezetimibe) with double-dummy design (FIG. 1B) and patients were not allowed to receive any other lipid lowering therapies besides statin and their randomized treatment.
After randomization, patients entered a double-blind, double-dummy treatment period of 104 weeks.
Primary analyses of efficacy endpoints were conducted using an ITT approach (based on the ITT population defined above), including all lipid data, regardless of whether the patient was continuing therapy or not. This corresponds to ITT estimands, defined for primary and key secondary endpoints. In addition, analyses were also conducted using an on-treatment approach (based on the mITT population defined above), including lipid data collected during the efficacy treatment period. This corresponds to on-treatment estimands of key secondary endpoints.
With regards to the primary efficacy analysis (ITT approach), the percent change in calculated LDL-C from baseline to Week 24 was analyzed using a mixed-effect model with repeated measures (MMRM) approach.

[2] = tested on: high cardiovascular risk patients with hypercholesterolemia; experiment: ODYSSEY LONG TERM: ophthalmologic sub-study; assay type: in vivo, human; settings: including the ophthalmological sub-study
Source text: Patients underwent ophthalmologic assessments by ophthalmologists/optometrists at the screening period. If the patients were deemed eligible for the main study trial and fulfilled the additional eligibility criteria for the sub-study, then the patients underwent ophthalmologic assessments every 6 months during the 18-month double-blind treatment period
The primary endpoint was adverse events related to ophthalmologic abnormalities (using SMQ “optic nerve disorders”, “retinal disorders” and “corneal disorders”) over the study duration.

[3] = tested on: high cardiovascular risk patients with hypercholesterolemia; settings: in vivo
Description: Safety was assessed through adverse event (AE) reporting (including adjudicated cardiovascular events), laboratory analyses, and vital signs measurement. Since the LDL-C-lowering effects of PCSK9 inhibition on top of a statin are unknown, a number of AEs were defined as being of special interest and were monitored, including alanine aminotransferase abnormalities, allergic events, hemolytic anemia, pregnancy, overdose with study drug, neurologic events, ophthalmic events, and local injection site reactions. AEs were determined to be of special interest based on review of previous clinical trials, correspondence with regulatory authorities and the Data Monitoring Committee, the use of a monoclonal antibody in this study, and the route of drug administration.
AEs (including adjudicated cardiovascular events), laboratory parameters, and vital signs were reported descriptively, based on the safety population (all randomized patients who received at least 1 dose or partial dose of study treatment). The safety analysis focused on the treatment-emergent AE period defined as the time from the first double-blind dose to the last double-blind dose of the investigational product +70 days (10 weeks).
The safety population included all randomized patients who received at least one dose or part of a dose of the double-blind IMP.
Safety analyses were descriptive, performed on the safety population according to treatment actually received. For analysis of TEAE and PCSA, the safety analysis focused on the TEAE period defined as the time from the first dose of double-blind IMP up to 70 days after the last double-blind injection.

[4] = tested on: high cardiovascular risk patients with hypercholesterolemia; experiment: ODYSSEY LONG TERM: lipid efficacy of alirocumab 150 mg Q2W vs placebo; assay type: in vivo, human; settings: intention-to-treat, Week 78 (final analysis)
[5] = ITT, Week 24, listed as alirocumab

What does the source list for “Alirocumab: human anti-PCSK9 antibody; HCVR SEQ ID NO:1, LCVR SEQ ID NO:6; CDRs SEQ ID NOs 2/3/4/7/8/10”?
Achieved LDL-C, median ([1]; 24 weeks, FIG. 7): 40 mg/dL; Patients with automatic up-titration at Week 12 from 75 mg Q2W to 150 mg Q2W (Week 8 LDL-C ≧70 mg/dL) ([1]; 82 of 446 patients with at least one injection after Week 12): 18.4% and 18%; Calculated LDL-C percent change, LS mean difference (SE) vs ezetimibe ([1]; ITT, Week 24): −29.8 (2.3) %; Calculated LDL-C, LS mean (SE) percent change from baseline ([1]; ITT, Week 24): −50.6 (1.4) %; Fasting TGs, LS mean percent change from baseline ([1]; ITT, Week 24): −13.0%; Calculated LDL-C percent change, LS mean difference (SE) vs ezetimibe [1, 5]: −29.8%; Calculated LDL-C, LS mean (SE) percent change from baseline [1, 5]: −50.6%; Fasting TGs percent change, LS mean difference vs ezetimibe ([1]; ITT, Week 24, p=0.9117): −0.3%; Calculated LDL-C, LS mean percent change from baseline ([1]; ITT, Week 52, listed as alirocumab): −49.5% and −50%; Apolipoprotein A-1, LS mean difference vs. ezetimibe ([1]; ITT, time point not given): vs. ezetimibe of 6.3%; Apolipoprotein A-1, LS mean vs. baseline ([1]; ITT, time point not given): vs. baseline of +5.0; Calculated LDL-C percent change, LS mean difference vs ezetimibe ([1]; On-treatment, Week 24): −30.6%; Calculated LDL-C percent change from baseline, LS mean (SE) ([1]; Week 4): −54.7 (1.1) %; Calculated LDL-C percent change from baseline, LS mean (SE) ([1]; Week 8): −54.3 (1.2) %; Apo-B - Percent change from baseline to Week 12, LS mean difference vs. ezetimibe ([1]; Week 12, ITT): vs. ezetimibe of −22.5%; Apo-B - Percent change from baseline to Week 12, LS mean vs. baseline ([1]; Week 12, ITT): vs. baseline of −39.7; Calculated LDL-C - Percent change from baseline to Week 12, LS mean difference vs. ezetimibe ([1]; Week 12, ITT): vs. ezetimibe of −29.4%; Non-HDL-C - Percent change from baseline to Week 12, LS mean difference vs. ezetimibe ([1]; Week 12, ITT): vs. ezetimibe of −22%; Non-HDL-C - Percent change from baseline to Week 12, LS mean vs. baseline ([1]; Week 12, ITT): vs. baseline of −42.6; Total-C - Percent change from baseline to Week 12, LS mean difference vs. ezetimibe ([1]; Week 12, ITT): vs. ezetimibe of −14.3%; Total-C - Percent change from baseline to Week 12, LS mean vs. baseline ([1]; Week 12, ITT): vs. baseline of −29.4; Calculated LDL-C - Percent change from baseline to Week 12, LS mean difference vs. ezetimibe ([1]; Week 12, On-treatment analysis): vs. ezetimibe of −29.7%; Calculated LDL-C percent change from baseline, LS mean (SE) ([1]; Week 16): −56.4 (1.3) %; Apo B reduction compared with ezetimibe ([1]; Week 24): 22.4%; Fasting TGs reduced from baseline ([1]; Week 24): 13.5%; HDL-C increase compared with ezetimibe ([1]; Week 24): 8.1%; Lp(a) reduction compared with ezetimibe ([1]; Week 24): 21.7%; Mean achieved LDL-C ([1]; Week 24): 51.6 (1.4) mg/dL; Non-HDL-C reduction compared with ezetimibe ([1]; Week 24): 22.9%; Apo-B - Percent change from baseline to Week 24, LS mean vs. baseline ([1]; Week 24, ITT): vs. baseline of −40.7; HDL-C - Percent change from baseline to Week 24, LS mean difference vs. ezetimibe ([1]; Week 24, ITT): vs. ezetimibe of 8.1%; HDL-C - Percent change from baseline to Week 24, LS mean vs. baseline ([1]; Week 24, ITT): vs. baseline of- +8.6; Lp(a) - Percent change from baseline to Week 24, combined estimate for adjusted mean difference vs. ezetimibe ([1]; Week 24, ITT): ezetimibe of −21.7%; Lp(a) - Percent change from baseline to Week 24, mean vs. baseline ([1]; Week 24, ITT): vs. baseline of −27.8; Non-HDL-C - Percent change from baseline to Week 24, LS mean difference vs. ezetimibe ([1]; Week 24, ITT): vs. ezetimibe of−22.9%; Non-HDL-C - Percent change from baseline to Week 24, LS mean vs. baseline ([1]; Week 24, ITT): vs. baseline of −42.1; Total-C - Percent change from baseline to Week 24, LS mean difference vs. ezetimibe ([1]; Week 24, ITT): vs. ezetimibe of −14.7%; Calculated LDL-C percent change from baseline, LS mean (SE) ([1]; Week 24): −50.6 (1.4) %; Fasting TGs - Percent change from baseline to Week 24, combined estimate for adjusted mean difference vs. ezetimibe ([1]; Week 24, ITT, not statistically significant (p 0.9117)): ezetimibe of −0.3%; HDL-C percent change from baseline to week 24 ([1]; Week 24, on-treatment analysis): 9.0 (0.8); HDL-C percent change from baseline to week 24, LS mean difference (SE) alirocumab vs ezetimibe ([1]; Week 24, on-treatment analysis): 8.2 (1.4) %; Lipoprotein(a) percent change from baseline to week 24 ([1]; Week 24, on-treatment analysis): −28.1 (1.4); Lipoprotein(a) percent change from baseline to week 24, LS mean difference (SE) alirocumab vs ezetimibe ([1]; Week 24, on-treatment analysis): −22.5 (2.4) %; Total cholesterol percent change from baseline to week 24 ([1]; Week 24, on-treatment analysis): −30.4 (0.9); Total cholesterol percent change from baseline to week 24, LS mean difference (SE) alirocumab vs ezetimibe ([1]; Week 24, on-treatment analysis): −15.1 (1.5) %; Triglycerides (fasted) percent change from baseline to week 24 ([1]; Week 24, on-treatment analysis): −13.5 (1.4); Triglycerides (fasted) percent change from baseline to week 24, LS mean difference (SE) alirocumab vs ezetimibe ([1]; Week 24, on-treatment analysis): −0.2 (2.5) %; Calculated LDL-C percent change from baseline, LS mean (SE) ([1]; Week 36): −51.2 (1.4) %; Calculated LDL-C - Percent change from baseline to Week 52, LS mean difference vs. ezetimibe ([1]; Week 52, ITT): vs. ezetimibe of −31.2%; Absolute reduction in LDL-C ([1]; by week 24, dose-increased group): 63.5 mg/dL; Absolute reduction in LDL-C ([1]; by week 24, remainder of the alirocumab group): 56.9 mg/dL; Patients who did not require uptitration to alirocumab 150 mg Q2W ([1]; in vivo): approximately 80%; Additional LDL-C reduction after dose increase at 12 weeks ([1]; patients with dose increased to 150 mg SC Q2W): 12.4%; TEAEs related to ophthalmological events [2]: no particular signal was detected; SOC infections and infestations [3]: 37.2%; Urinary tract infection (TEAE preferred term) [3]: 13 (6.3) No. (%) of patients; Percent decrease in LDL cholesterol [4]: 52%
